Twelve molecules from ChEMBL document CHEMBL4219152, “Design, synthesis, biological evaluation, homology modeling and docking studies of (E)-3-(benzo[d][1,3]dioxol-5-ylmethylene) pyrrolidin-2-one derivatives as potent anticonvulsant agents” (Bioorg Med Chem Lett, 2018) can be followed below.

A short description of data set [1]: Neurotoxicity in ip dosed Kunming mouse assessed as motor impairment by measuring reduction in time spent on rotarod. In kind it is toxicity, organism-based. The following applies: in vivo.
For data set [2], the system named is Mus musculus. Nature of the data set: Anticonvulsant activity in Kunming mouse assessed as protection against subcutaneously injected metrazol-induced seizures at 300 mg/kg, ip measured after 0.5 hrs. In kind it is functional, organism-based.
The species entered for data set [3] is Mus musculus. Nature of the data set: Neurotoxicity in Kunming mouse assessed as motor impairment by measuring reduction in time spent on rotarod after 0.5 hrs by rotarod test. Format: toxicity, organism-based. Conditions: in vivo.
For data set [4], the system named is Mus musculus. Nature of the data set: Anticonvulsant activity in Kunming mouse assessed as protection against subcutaneously injected metrazol-induced seizures at 300 mg/kg, ip after 4 hrs. In kind it is functional, organism-based.
In data set [5] the test system is Mus musculus. Nature of the data set: Anticonvulsant activity in ip dosed Kunming mouse assessed as minimum dose required to protect maximal electroshock-induced seizures in mouse measured after 4 hrs. Format: functional. The following applies: read-out: MED.
The species named for data set [6] is Mus musculus. Nature of the data set: Neurotoxicity in Kunming mouse assessed as motor impairment by measuring reduction in time spent on rotarod after 4 hrs by rotarod test. In kind it is toxicity, organism-based. The following applies: in vivo.
Data set [7] relates to Mus musculus. Description: Anticonvulsant activity in ip dosed Kunming mouse assessed as minimum dose required to protect maximal electroshock-induced seizures in mouse measured after 0.5 hrs. Format: functional. Conditions: read-out: MED.
Data set [8] concerns Mus musculus. Description: Anticonvulsant activity in ip dosed Kunming mouse assessed as protection against maximal electroshock-induced seizures. Format: functional.
For data set [9], the system named is Mus musculus. Description: Anticonvulsant activity in ip dosed Kunming mouse assessed as minimum dose required to protect maximal electroshock-induced seizures in mouse by measuring time to peak effect. In kind it is functional.
A short description of data set [10]: Protection index, ratio of TD50 for neurotoxicity by motor impairment in Kunming mouse to ED50 for protection against maximal electroshock-induced seizures in ip dosed Kunming mouse. In kind it is toxicity, organism-based. The following applies: in vivo, read-out: Ratio TD50/ED50.
The test system of data set [11] is Mus musculus. Nature of the data set: Anticonvulsant activity in Kunming mouse assessed as protection against maximal electroshock-induced seizures in mouse at 300 mg/kg, ip measured after 0.5 hrs. Format: functional, organism-based.
The subject of data set [12] is Mus musculus. Description: Anticonvulsant activity in ip dosed Kunming mouse assessed as protection against subcutaneously injected metrazol-induced seizures after 0.5 hrs. In kind it is functional. The following applies: read-out: MED.
The subject of data set [13] is Mus musculus. Nature of the data set: Anticonvulsant activity in Kunming mouse assessed as protection against maximal electroshock-induced seizures in mouse at 300 mg/kg, ip measured after 4 hrs. In kind it is functional, organism-based.
Data set [14] deals with Sodium channel protein type 1 subunit alpha (Homo sapiens) (UniProt P35498). Nature of the data set: Inhibition of human Nav1.1 expressed in CHO-K1 cells assessed as use-dependent block at 10 uM at holding potential of -120 mV incubated for 30 mins prior to testing measured every 20 seconds by whole-cell patch clamp method. In kind it is cell-based.
Another data set concerns the target Nav1.1 (Homo sapiens, UniProt P35498). Description: Inhibition of human Nav1.1 expressed in CHO-K1 cells assessed as state-dependent block at 10 uM at holding potential of -120 mV incubated for 30 mins prior to testing measured every 20 seconds by whole-cell patch clamp method. In kind it is cell-based. Conditions: CHO-K1 cells expressing human Nav1.1.

The structures appear in SMILES notation. Calls of active or inactive are those of the source. The rule behind the calls is not given here.

Turning to `O=C1NCC/C1=C\c1ccc2c(c1)OCO2`, in data set [1], the TD50 is 179 mg/kg. Further, the result with Mus musculus [2] and in the data set on Mus musculus [4] was inactive. The MLD in the data set listed under Mus musculus [3] and in the data set filed under Mus musculus [6] was 300 mg/kg in each case. Moreover, the minimal effective dose in the data set on Mus musculus [5] was 100 mg/kg; with Mus musculus [7], 30 mg/kg. Further, the ED50 with Mus musculus [8] came to 17.3 mg/kg. In the data set on Mus musculus [9], the Time was determined as 1 h. In addition, the selectivity ratio in data set [10] came out at 10.4.
For `O=C1NC(=O)C(c2ccccc2)(c2ccccc2)N1` [PHENYTOIN], the result in the data set on Mus musculus [2] and with Mus musculus [4] was inactive. In addition, the MLD in the data set filed under Mus musculus [3] and in the data set filed under Mus musculus [6] was 100 mg/kg each time. The minimal effective dose with Mus musculus [5] and with Mus musculus [7] was 30 mg/kg in each case. Further, the Time in the data set on Mus musculus [9] came to 2 h.
For `O=C1/C(=C/c2ccc3c(c2)OCO3)CCN1Cc1ccccc1Cl`, the MLD in the data set listed under Mus musculus [3] and in the data set listed under Mus musculus [6] was 300 mg/kg each time. In addition, the outcome in the data set with Mus musculus [4], in the data set with Mus musculus [11] and with Mus musculus [13] was inactive. Also, the minimal effective dose in the data set on Mus musculus [12] came to 100 mg/kg.
`O=C1/C(=C/c2ccc3c(c2)OCO3)CCN1Cc1ccc(F)cc1`: the result in the data set on Mus musculus [2], in the data set with Mus musculus [4] and with Mus musculus [13] was inactive. The MLD in the data set listed under Mus musculus [3] and in the data set filed under Mus musculus [6] was 300 mg/kg each time. Further, the minimal effective dose in the data set on Mus musculus [7] was 30 mg/kg.
In the case of `CC(C)(C)c1ccc(CN2CC/C(=C\c3ccc4c(c3)OCO4)C2=O)cc1`, the result in the data set with Mus musculus [2] and with Mus musculus [4] was inactive. In addition, the MLD in the data set listed under Mus musculus [3] and in the data set filed under Mus musculus [6] was 300 mg/kg throughout. In addition, the minimal effective dose in the data set with Mus musculus [5] and with Mus musculus [7] was 100 mg/kg each time.
Regarding `O=C1/C(=C/c2ccc3c(c2)OCO3)CCN1Cc1c(F)cccc1F`, the result with Mus musculus [2] and in the data set on Mus musculus [4] was inactive. For the same molecule, the MLD in the data set filed under Mus musculus [3] and in the data set filed under Mus musculus [6] was 300 mg/kg each time. Further, the minimal effective dose in the data set on Mus musculus [5] and in the data set on Mus musculus [7] was 100 mg/kg throughout.
With `O=C1/C(=C/c2ccc3c(c2)OCO3)CCN1Cc1ccccc1F`, in [1], the TD50 was determined as 238 mg/kg. Moreover, the result with Mus musculus [2] and in the data set with Mus musculus [4] was inactive. The MLD in the data set listed under Mus musculus [3] and in the data set listed under Mus musculus [6] was 300 mg/kg in each case. Also, the minimal effective dose in the data set with Mus musculus [5] and in the data set with Mus musculus [7] was 30 mg/kg in each case. Moreover, the ED50 in the data set with Mus musculus [8] is 5.6 mg/kg. The Time with Mus musculus [9] is 1 h. Further, in [10], the selectivity ratio is 42.6.
As for `Cc1ccc(CN2CC/C(=C\c3ccc4c(c3)OCO4)C2=O)cc1`, the TD50 in [1] amounted to 167 mg/kg. The outcome in the data set on Mus musculus [2] and in the data set on Mus musculus [4] was inactive. The MLD in the data set filed under Mus musculus [3] and in the data set filed under Mus musculus [6] was 300 mg/kg throughout. Further, the minimal effective dose in the data set on Mus musculus [5] and with Mus musculus [7] was 30 mg/kg each time. Besides, the ED50 with Mus musculus [8] stood at 6.3 mg/kg. The Time in the data set with Mus musculus [9] came out at 1 h. In addition, the selectivity ratio in data set [10] turned out to be 26.5.
For the molecule `O=C1/C(=C/c2ccc3c(c2)OCO3)CCN1Cc1cccc(F)c1`, the outcome in the data set on Mus musculus [2], in the data set with Mus musculus [4] and in the data set on Mus musculus [11] was inactive. The MLD in the data set filed under Mus musculus [3] and in the data set filed under Mus musculus [6] was 300 mg/kg in each case. Also, in the data set with Mus musculus [5], the minimal effective dose came to 30 mg/kg.
For `O=C1/C(=C/c2ccc3c(c2)OCO3)CCN1Cc1cccc(C(F)(F)F)c1`, in [1], the TD50 stood at 161 mg/kg. Moreover, the result in the data set on Mus musculus [2] and in the data set on Mus musculus [4] was inactive. In addition, the MLD in the data set listed under Mus musculus [3] and in the data set filed under Mus musculus [6] was 300 mg/kg in each case. The inhibition in [14] is 99.9%. In addition, the minimal effective dose with Mus musculus [5] and in the data set with Mus musculus [7] was 30 mg/kg each time. Besides, the inhibition at 0.5 h, 10 µM at Nav1.1 amounted to 19.5%. The ED50 in the data set on Mus musculus [8] is 4.3 mg/kg. Also, the Time in the data set on Mus musculus [9] was found to be 1 h. Moreover, in data set [10], the selectivity ratio was 37.4.
As for `CCC1(c2ccccc2)C(=O)NC(=O)NC1=O` [PHENOBARBITAL], the ED50 in the data set on Mus musculus [8] worked out at 21.8 mg/kg. For the same molecule, in the data set on Mus musculus [9], the Time amounted to 1 h.
With `Cc1ccccc1CN1CC/C(=C\c2ccc3c(c2)OCO3)C1=O`, the MLD in the data set filed under Mus musculus [3] and in the data set listed under Mus musculus [6] was 300 mg/kg each time. Besides, the result with Mus musculus [4] and in the data set on Mus musculus [11] was inactive. In addition, the minimal effective dose in the data set with Mus musculus [5] is 30 mg/kg; in the data set with Mus musculus [12], 100 mg/kg.
